Common to all, as to assay: Minimal Inhibitory Concentration, in vitro
Holding throughout (assay type): cell-based
Holding throughout (design): unit not given here

Assay [1] has as its system Enterobacter Cloacae IMM-11. The source says: (§1) The compounds of the invention are new chemical compounds that are useful as pharmacological agents and especially as broad spectrum antibacterial agents. They are active in vitro against strains of both gram-positive and gram-negative bacteria.
(§2) Minimal Inhibitory Concentration

The test system of assay [2] is Klebsiella Pneumoniae MGH-2.
Excerpt: as §1, §2

For another assay, the system named is Proteus Vulgaris 1810.
Excerpt: as §1, §2

Assay [3] has as its system Pseudomonas Aeruginosa #28.
Excerpt: as §1, §2

Assay [4] deals with Pseudomonas Aeruginosa UI-18.
Excerpt: as §1, §2

Assay [5] deals with Serratia Marcescens IMM-16.
Excerpt: as §1, §2

A further assay relates to Staph Aureus UC-76.
Excerpt: as §1, §2

Turning to `CC(=O)NCCCCC(NC(C)=O)C(=O)Nc1ccc(-c2ncc(C(=O)N[C@@H](C(=O)N[C@@H]3C(=O)N4[C@@H]3SC(C)(C)[C@@H]4C(=O)O)c3ccc(O)cc3)c(O)n2)cc1` (mixture of isomers) [N,N'-Diacetyl-DL-Lysyl, N-[2-[4-(N,N'-Diacetyl-DL-lysylamino)phenyl]-4-hydroxy-5-pyrimidinylcarbonyl]amoxicillin], the “Minimal Inhibitory Concentration” value was 25 in assay [1]; greater than 50 in assay [2]; 6.3 with Proteus Vulgaris 1810; 1.6 in assay [3]; 3.1 in assay [4]; 50 in assay [5]. Besides, the “Minimal Inhibitory Concentration” value in the assay on Staph Aureus UC-76 amounted to 1.6.

With `CC(=O)NC(C)C(=O)Nc1ccc(-c2ncc(C(=O)N[C@@H](C(=O)N[C@@H]3C(=O)N4[C@@H]3SC(C)(C)[C@@H]4C(=O)O)c3ccc(O)cc3)c(O)n2)cc1` (mixture of isomers) [N-Acetyl-DL-Alanyl, N-[2-[4-(N-Acetyl-DL-alanylamino)phenyl]-4-hydroxy-5-pyrimidinyl-carbonyl]amoxicillin], the “Minimal Inhibitory Concentration” value in assay [1] was found to be 6.3; in assay [2], 25; in the assay on Proteus Vulgaris 1810, 0.8; in assay [3], 1.6; in assay [4] it was 1.6; in assay [5] it was 6.3. Moreover, the “Minimal Inhibitory Concentration” value in the assay with Staph Aureus UC-76 is reported as 0.2.

For `CC(=O)NC(CC(C)C)C(=O)Nc1ccc(-c2ncc(C(=O)N[C@@H](C(=O)N[C@@H]3C(=O)N4[C@@H]3SC(C)(C)[C@@H]4C(=O)O)c3ccc(O)cc3)c(O)n2)cc1` (mixture of isomers) [N-Acetyl-DL-Leucyl, N-[2-[4-(N-Acetyl-DL-leucylamino)phenyl]-4-hydroxy-5-pyrimidinylcarbonyl]amoxicillin], the “Minimal Inhibitory Concentration” value was 25 in assay [1]; greater than 50 in assay [2]; 3.1 in the assay with Proteus Vulgaris 1810; 3.1 in assay [3]; 3.1 in assay [4]; 25 in assay [5]. For the same molecule, the “Minimal Inhibitory Concentration” value with Staph Aureus UC-76 came out at 1.6.

Consider `CSCCC(NC(C)=O)C(=O)Nc1ccc(-c2ncc(C(=O)N[C@@H](C(=O)N[C@@H]3C(=O)N4[C@@H]3SC(C)(C)[C@@H]4C(=O)O)c3ccc(O)cc3)c(O)n2)cc1` (mixture of isomers) [N-Acetyl-DL-Methionyl, N-[2-[4-(N-acetyl-DL-methionylamino)phenyl]-4-hydroxy-5-pyrimidinylcarbonyl]amoxicillin], for which the “Minimal Inhibitory Concentration” value came to 12.5 in assay [1]; 50 in assay [2]; 3.1 in the assay on Proteus Vulgaris 1810; 1.6 in assay [3]; 1.6 in assay [4]; 12.5 in assay [5]. The “Minimal Inhibitory Concentration” value with Staph Aureus UC-76 is recorded as 1.6.

As for `CC(=O)N1CCCC1C(=O)Nc1ccc(-c2ncc(C(=O)N[C@@H](C(=O)N[C@@H]3C(=O)N4[C@@H]3SC(C)(C)[C@@H]4C(=O)O)c3ccc(O)cc3)c(O)n2)cc1` (mixture of isomers) [N-Acetyl-DL-Prolyl, N-[2-[4-(N-Acetyl-DL-prolylamino)phenyl]-4-hydroxy-5-pyrimidinylcarbonyl]amoxicillin], the “Minimal Inhibitory Concentration” value in assay [1] came out at 12.5; in assay [2], 50; in the assay on Proteus Vulgaris 1810 it was 1.6; in assay [3] it was 1.6; in assay [4], 1.6; in assay [5], 12.5. The “Minimal Inhibitory Concentration” value in the assay on Staph Aureus UC-76 was found to be 0.8.

(Values after patent publication US4267180A, “Novel antibacterial amide compounds and process means for producing the same” (Warner-Lambert Company, priority 1980, dated 1981).)
